Test results: US9120795B2, “Crystalline form of a β-lactamase inhibitor” (Cubist Pharmaceuticals, Inc., priority 2013, dated 2015)

Key:
Cfr.568 (AmpC, clinical) = assay: Standard BLI potentiation MIC assay; format: cell-based, Citrobacter spp; details: Citrobacter, read-out: MIC of β-lactam with BLI
Experimental: (§1) The experimental protocol was performed according to Clinical and Laboratory Standards Institute (CLSI) guidelines with modifications as described below (CLSI guidelines can be derived from the CLSI document M07-A9 published in January 2012: “Methods for Dilution Antimicrobial Susceptibility Tests for Bacteria That Grow Aerobically; Approved Standard-Ninth Edition”).
(§2) To prepare for MIC testing, frozen glycerol stocks of clinical isolates (Klebsiella pneumoniae, Eschericia coli, Enterobacter spp, Citrobacter spp, or Pseudomonas aeruginosa) were used to streak for isolated colonies on rich, non-selective, tryptic soy agar containing 5% sheep's blood (TSAB). Frozen glycerol stocks of laboratory engineered, isogenic E. coli strains, which contain cloned β-lactamase expressing plasmids were used to streak for isolated colonies on rich, selective LB agar supplemented with 25 μg/mL tetracycline to maintain the plasmid. All strains were incubated at 37° C. for 18-24 hrs. […]
(§3) Plates were incubated for 18-20 hours at 37° C. with aeration (200 rpm). Following incubation, growth was confirmed visually placing plates over a viewing apparatus (stand with a mirror underneath) and then OD600 was measured using a SpectraMax 340PC384 plate reader (Molecular Devices, Sunnyvale, Calif.). Growth was defined as turbidity that could be detected with the naked eye or achieving minimum OD600 of 0.1. […]

Ecl.569 (AmpC, clinical) = assay: Standard BLI potentiation MIC assay; format: cell-based, Enterobacter spp; details: Enterobacter, read-out: MIC of β-lactam with BLI
Experimental: as §1, §2, §3

KPC-2 β-lactamase = KPC-2 β-lactamase (Klebsiella pneumoniae, UniProt Q9F663); assay: Inhibition kinetics with nitrocefin as reporter substrate; format: biochemical; details: 100 μM nitrocefin, 1×PBS pH 7.4, 25° C.
Chain of KPC-2 β-lactamase (Q9F663 25-293 limits assumed): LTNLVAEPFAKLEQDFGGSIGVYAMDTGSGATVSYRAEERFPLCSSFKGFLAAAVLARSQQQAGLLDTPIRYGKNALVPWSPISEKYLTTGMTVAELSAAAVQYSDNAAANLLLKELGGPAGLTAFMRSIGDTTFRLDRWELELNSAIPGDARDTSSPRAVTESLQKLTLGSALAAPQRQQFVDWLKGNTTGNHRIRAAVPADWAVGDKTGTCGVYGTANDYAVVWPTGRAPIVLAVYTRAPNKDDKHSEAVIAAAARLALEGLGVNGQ
Experimental: Inhibition or inactivation of KPC-2 by test inhibitors was assessed using 100 μM nitrocefin (NCF) as a reporter substrate. Assays were performed in 1×PBS pH 7.4, 0.1 mg/ml BSA, in 96-well half area plates, 50 μl reaction volume. NCF was dissolved in DMSO and diluted in assay buffer. Test inhibitors were dissolved in water or DMSO and serially diluted in the assay with final concentrations between 2000-0.195 μM.
The enzyme activity in the presence of varying concentrations of test inhibitor was determined by monitoring the hydrolysis of NCF spectrophotometrically at 486 nm, for 5 minutes, 25° C., using a SpectraMax Plus384 microplate reader with SoftMax Pro software (Molecular Devices). Data analysis was performed using GraphPad Prism (GraphPad Software, Inc.).
Progress curves were fit to a first-order rate decay equation (Eq. 1) to determine kobserved (kobs).
kobs vs. inhibitor concentration [I] curves were then fit to Eq.2 to determine the inhibitor dissociation constant (K) and the first order rate constant of enzyme inactivation at infinite inhibitor concentration (kinact). […] Yt=V0*(1−e^(−kobs*t))/kobs Eq. 1 Where Y is the absorbance at time t, V0 is the uninhibited enzyme velocity, kobs is the observed rate constant of the enzyme inactivation. kobs=kinact*[I]/([I]+K(1+S/Km)) Eq. 2 Where S is the NCF concentration, Km is the KPC-2 Km for NCF.

O=C1N2C[C@@H](CC[C@H]2c2nnco2)N1OS(=O)(=O)[O-].[Na+] [Hydrate 1, sodium (2S,5R)-2-(1,3,4-oxadiazol-2-yl)-7-oxo-1,6-diazabicyclo[3.2.1]octan-6-yl sulfate]
MIC (Cfr.568 (AmpC, clinical)): 1 to 2 mg/L
MIC (Ecl.569 (AmpC, clinical)): 0.25 to 0.5 mg/L
Kinact/K (KPC-2 β-lactamase): 134000 to 163000 M⁻¹ s⁻¹
